# From publication PMC3086652 (European journal of immunology, 2010)
# Ends that are not written are not given here.
# How the values were obtained:
# Experiment in all cases: biochemical
# Type in all cases: binding
# HLA A*0201 = HLA A*0201 (Homo sapiens, UniProt P04439, D140Y/D185E/D98H/E176V/E277Q/G131W/G231S/I119V/I121R/I166T/I218V/L300P/L318F/N151K/N90K/P208A/P217A/Q86G/Q94H/R138H/R169H/T345S)
# HLA A*0202 = HLA A*0202 (Homo sapiens, UniProt P04439, D140Y/D185E/D98H/E176V/E277Q/G131W/G231S/I119L/I121R/I166T/I218V/L180W/L300P/L318F/N151K/N90K/P208A/P217A/Q67R/Q86G/Q94H/R138H/R169H/T345S)
# HLA A*0203 = HLA A*0203 (Homo sapiens, UniProt P04439, A173T/D140Y/D185E/D98H/E277Q/G131W/G231S/I119V/I121R/I166T/I218V/L180W/L300P/L318F/N151K/N90K/P208A/P217A/Q86G/Q94H/R138H/R169H/T345S)
# HLA A*6802 = HLA A*6802 (Homo sapiens, UniProt P04439, A269V/D140Y/D185E/E176V/E277Q/E87N/F33Y/G231S/I121R/I166T/I218V/L180W/L300P/L318F/N151K/P208A/P217A/Q86R/R138H/R169H/S129P/T345S/V36M)
# HLA A*0206 = HLA A*0206 (Homo sapiens, UniProt P04439, D140Y/D185E/D98H/E176V/E277Q/F33Y/G131W/G231S/I119V/I121R/I166T/I218V/L300P/L318F/N151K/N90K/P208A/P217A/Q86G/Q94H/R138H/R169H/T345S)
Molecule,IC50 (HLA A*0201) [nM],IC50 (HLA A*0202) [nM],IC50 (HLA A*0203) [nM],IC50 (HLA A*6802) [nM],IC50 (HLA A*0206) [nM]
TINAWIKVV [TV9p30],4230,1830,112,6220,12600
KINAWIKGV [TV9p5],536,433,10,36800,224
"CC(C)C[C@H](NC(=O)[C@@H](N)[C@@H](C)O)C(=O)N[C@@H](CC(N)=O)C(=O)N[C@@H](C)C(=O)N[C@@H](Cc1c[nH]c2ccccc12)C(=O)N[C@H](C(=O)N[C@@H](CCCCN)C(=O)N[C@H](C(=O)N[C@H](C(=O)O)C(C)C)C(C)C)C(C)C [TV9, reference compound]",701,179,108,23900,1960
KINAWIKVV [TV9p6],5120,2950,56,> 10000,13400
TINAWIKGV [TV9p29],1060,706,15,269,2250
